Source: ChEMBL document CHEMBL5233217, “Modification of 7-piperazinylquinolone antibacterials to promising anticancer lead compounds: Synthesis and in vitro studies” (Eur J Med Chem, 2020)
Each block holds one molecule with its values, some of them ahead of it.

Legend:
SMMC-7721 [1] = assay: Antiproliferative activity against human SMMC-7721 cells assessed as reduction in cell viability incubated for 24 hrs by MTT assay; format: functional, cell-based; settings: SMMC-7721, 24 h
HCT-8 [2] = assay: Antiproliferative activity against human HCT-8 cells assessed as reduction in cell viability incubated for 24 hrs by MTT assay; format: functional, cell-based; settings: HCT-8, 24 h
MCF7 [3] = assay: Antiproliferative activity against human MCF7 cells assessed as reduction in cell viability incubated for 24 hrs by MTT assay; format: functional, cell-based; settings: MCF7, 24 h
SW-620 = assay: Antiproliferative activity against human SW620 cells assessed as inhibition of cell proliferation by CCK-8 assay; format: functional, cell-based
NCI-H460 = assay: Antiproliferative activity against human NCI-H460 cells assessed as inhibition of cell proliferation by CCK-8 assay; format: functional, cell-based
MCF7 [4] = assay: Antiproliferative activity against human MCF7 cells assessed as inhibition of cell proliferation by CCK-8 assay; format: functional, cell-based
PC-3 [5] = assay: Antiproliferative activity against human PC-3 cells assessed as inhibition of cell proliferation by CCK-8 assay; format: functional, cell-based
MGC-803 = assay: Antiproliferative activity against human MGC-803 cells assessed as inhibition of cell proliferation by CCK-8 assay; format: functional, cell-based
HepG2 [6] = assay: Antiproliferative activity against human HepG2 cells assessed as inhibition of cell proliferation by CCK-8 assay; format: functional, cell-based
HL-60 [7] = assay: Antiproliferative activity against human HL-60 cells assessed as reduction in cell viability incubated for 48 hrs by MTT assay; format: functional, cell-based; settings: HL-60, 48 h
L1210 [8] = assay: Antiproliferative activity against mouse L1210 cells assessed as reduction in cell viability incubated for 48 hrs by MTT assay; format: functional, cell-based; settings: L1210, 48 h
A549 [9] = assay: Antitumor activity against human A549 cells assessed as reduction in cell viability incubated for 72 hrs by MTT assay; format: functional, cell-based; settings: A549, 72 h
PC-3 [10] = assay: Antitumor activity against human PC-3 cells assessed as reduction in cell viability incubated for 72 hrs by MTT assay; format: functional, cell-based; settings: PC-3, 72 h
MCF7 [11] = assay: Antitumor activity against human MCF7 cells assessed as reduction in cell viability incubated for 72 hrs by MTT assay; format: functional, cell-based; settings: MCF7, 72 h
HeLa = assay: Antitumor activity against human HeLa cells assessed as reduction in cell viability incubated for 72 hrs by MTT assay; format: functional, cell-based
HepG2 [12] = assay: Antitumor activity against human HepG2 cells assessed as reduction in cell viability incubated for 72 hrs by MTT assay; format: functional, cell-based; settings: HepG2, 72 h
SMMC-7721 [13] = assay: Antitumor activity against human SMMC-7721 cells assessed as reduction in cell viability by MTT assay; format: functional, cell-based
HL-60 [14] = assay: Antitumor activity against human HL-60 cells assessed as reduction in cell viability by MTT assay; format: functional, cell-based
L1210 [15] = assay: Antitumor activity against mouse L1210 cells assessed as reduction in cell viability by MTT assay; format: functional, cell-based
CAPAN-1 [16] = assay: Antitumor activity against human CAPAN-1 cells assessed as reduction in cell viability by MTT assay; format: functional, cell-based
Hep 3B2 [17] = assay: Antitumor activity against human Hep3B cells assessed as reduction in cell viability by MTT assay; format: functional, cell-based
HL-60 [18] = assay: Anticancer activity against human HL-60 cells assessed as reduction in cell viability incubated for 24 hrs by MTT assay; format: functional, cell-based; settings: HL-60, 24 h
HL-60 [19] = assay: Anticancer activity against human HL-60 cells assessed as reduction in cell viability incubated for 48 hrs by MTT assay; format: functional, cell-based; settings: HL-60, 48 h
A2780 = assay: Anticancer activity against human cisplatin resistant A2780 cells assessed as reduction in cell viability by MTT assay; format: functional, cell-based
SW48 = assay: Anticancer activity against human SW48 cells assessed as reduction in cell viability by MTT assay; format: functional, cell-based
A549 [20] = assay: Anticancer activity against human A549 cells assessed as reduction in cell viability by MTT assay; format: functional, cell-based
MCF7 [21] = assay: Antiproliferative activity against human MCF7 cells assessed as reduction in cell viability incubated for 48 hrs by MTT assay; format: functional, cell-based; settings: MCF7, 48 h
HCT-8 [22] = assay: Antiproliferative activity against human HCT-8 cells assessed as reduction in cell viability incubated for 48 hrs by MTT assay; format: functional, cell-based; settings: HCT-8, 48 h
SMMC-7721 [23] = assay: Antiproliferative activity against human SMMC-7721 cells assessed as reduction in cell viability incubated for 48 hrs by MTT assay; format: functional, cell-based; settings: SMMC-7721, 48 h
Hep 3B2 [24] = assay: Antiproliferative activity against human Hep3B cells assessed as reduction in cell viability incubated for 48 hrs by MTT assay; format: functional, cell-based
[25] = Cytotoxicity against mouse BMSC cells assessed as reduction in cell viability incubated for 48 hrs by MTT assay; format: toxicity, cell-based
Huh-7 = assay: Anticancer activity against human Huh-7 cells assessed as reduction in cell viability incubated for 24 hrs by MTT assay; format: functional, cell-based; settings: Huh-7, 24 h
UACC-257 = assay: Anticancer activity against human UACC-257 cells assessed as cell growth inhibition by sulforhodamine B assay; format: functional
HOP-92 = assay: Anticancer activity against human HOP-92 cells assessed as cell growth inhibition by sulforhodamine B assay; format: functional
LOX IMVI = assay: Anticancer activity against human LOX IMVI cells assessed as cell growth inhibition by sulforhodamine B assay; format: functional
SK-MEL-2 = assay: Anticancer activity against human SK-MEL-2 cells assessed as cell growth inhibition by sulforhodamine B assay; format: functional
SK-MEL-5 = assay: Anticancer activity against human SK-MEL-5 cells assessed as cell growth inhibition by sulforhodamine B assay; format: functional
PANC-1 = assay: Antiproliferative activity against human PANC-1 cells assessed as reduction in cell viability incubated for 24 to 72 hrs by MTT assay; format: functional, cell-based
CAPAN-1 [26] = assay: Antiproliferative activity against human CAPAN-1 cells assessed as reduction in cell viability incubated for 24 to 72 hrs by MTT assay; format: functional, cell-based

Structure (SMILES): O=c1c(-c2nn3c(-c4cn(C5CC5)c5cc(N6CCNCC6)c(F)cc5c4=O)nnc3s2)cn(C2CC2)c2cc(N3CCNCC3)c(F)cc12
IC50 (HL-60 [7]): 540 nM
IC50 (L1210 [8]): 3.6 µM

Structure (SMILES): C[C@H]1COc2c(N3CCN(C)CC3)c(F)cc3c(=O)c(C(=O)NCc4cn(CCCCCCC(=O)NO)nn4)cn1c23
IC50 (A549 [9]): 300 nM
IC50 (PC-3 [10]): 300 nM
IC50 (MCF7 [11]): 300 nM
IC50 (HeLa): 300 nM
IC50 (HepG2 [12]): 300 nM

Structure (SMILES): COc1ccc2cc3[n+](cc2c1OC(=O)c1cn(C2CC2)c2cc(N4CCNCC4)c(F)cc2c1=O)CCc1cc2c(cc1-3)OCO2
IC50 (HL-60 [18]): 19.3 µM
IC50 (HL-60 [19]): 15.7 µM

Structure (SMILES): Nc1nnc(-c2cn(C3CC3)c3cc(N4CCNCC4)c(F)cc3c2=O)s1
IC50 (Huh-7): 25.8 µM

Structure (SMILES): COc1ncnc(NS(=O)(=O)c2ccc(/N=C3\C(=O)N(CN4CCN(c5c(F)cc6c(=O)c(C(=O)O)cn(C7CC7)c6c5OC)CC4C)c4ccc(Br)cc43)cc2)c1OC (centres undefined)
GI50 (UACC-257): < 10 µM
GI50 (HOP-92): 176 nM
GI50 (LOX IMVI): < 10 µM
GI50 (SK-MEL-2): < 10 µM
GI50 (SK-MEL-5): < 10 µM

Structure (SMILES): CN1CCN(c2cc3c(cc2F)c(=O)c(/C=C2\CN(C4CC4)c4cc(N5CCNCC5)c(F)cc4C2=O)cn3C2CC2)CC1
IC50 (PANC-1): 3.1 µM
IC50 (CAPAN-1 [26]): 1600 nM

Continued, in another order:

IC50 (SMMC-7721 [1]): 2900 nM
IC50 (HCT-8 [2]): 2900 nM
IC50 (MCF7 [3]): 2900 nM
Structure (SMILES): O=C(N/N=C/c1ccc2c(c1)OCO2)c1cn(C2CC2)c2cc(N3CCNCC3)c(F)cc2c1=O

IC50 (SW-620): 600 nM
IC50 (NCI-H460): 600 nM
IC50 (MCF7 [4]): 600 nM
IC50 (PC-3 [5]): 600 nM
IC50 (MGC-803): 600 nM
IC50 (HepG2 [6]): 600 nM
Structure (SMILES): C[C@H]1COc2c(N3CCN(C)CC3)c(F)cc3c(=O)c(-c4nnc(NC(=O)CCCCCCC(=O)NO)s4)cn1c23

IC50 (SMMC-7721 [13]): 26.7 µM
IC50 (HL-60 [14]): 26.7 µM
IC50 (L1210 [15]): 26.7 µM
Structure (SMILES): COc1ccc(-c2csc3nc(-c4cn5c6c(c(N7CCN(C)CC7)c(F)cc6c4=O)OCC5C)nn23)cc1 (centres undefined)
IC50 (CAPAN-1 [16]): 26.7 µM
IC50 (Hep 3B2 [17]): 26.7 µM

IC50 (A2780): ≤ 43 µM
IC50 (SW48): ≤ 43 µM
Structure (SMILES): C[C@H]1COc2c(Nc3ccc(-n4c(=O)[nH][nH]c4=O)cc3)c(F)cc3c(=O)c(C(=O)O)cn1c23

IC50 (A549 [20]): 34.5 µM
Structure (SMILES): C[C@H]1COc2c(Nn3c(=O)[nH][nH]c3=O)c(F)cc3c(=O)c(C(=O)O)cn1c23

IC50 (MCF7 [21]): 2210 nM
IC50 (HCT-8 [22]): 2210 nM
IC50 (SMMC-7721 [23]): 2210 nM
Structure (SMILES): COc1cc(/C=N/NC(=O)c2cn3c4c(c(N5CCN(C)CC5)c(F)cc4c2=O)OC[C@@H]3C)cc(OC)c1OC
IC50 (Hep 3B2 [24]): 2210 nM
IC50 at 48 h [25]: 7.46 µM
